Results taken from patent publication EP1272659B1, “EARLY DIAGNOSIS OF M[…] HUMAN BEINGS” (Università degli Studi di Roma " Tor Vergata", priority 2000, dated 2001).

Target: T1, FAAH (anandamide hydrolase; arachidonoylethanolamide amidohydrolase, EC 3.5.1.4) in human lymphocyte homogenates (Homo sapiens, UniProt O00519)
T1 construct: Lymphocytes were purified from peripheral blood by gradient centrifugation; from tissue; host or cells: human peripheral blood lymphocytes of pregnant women, homogenate
T1 sequence (O00519 1-579): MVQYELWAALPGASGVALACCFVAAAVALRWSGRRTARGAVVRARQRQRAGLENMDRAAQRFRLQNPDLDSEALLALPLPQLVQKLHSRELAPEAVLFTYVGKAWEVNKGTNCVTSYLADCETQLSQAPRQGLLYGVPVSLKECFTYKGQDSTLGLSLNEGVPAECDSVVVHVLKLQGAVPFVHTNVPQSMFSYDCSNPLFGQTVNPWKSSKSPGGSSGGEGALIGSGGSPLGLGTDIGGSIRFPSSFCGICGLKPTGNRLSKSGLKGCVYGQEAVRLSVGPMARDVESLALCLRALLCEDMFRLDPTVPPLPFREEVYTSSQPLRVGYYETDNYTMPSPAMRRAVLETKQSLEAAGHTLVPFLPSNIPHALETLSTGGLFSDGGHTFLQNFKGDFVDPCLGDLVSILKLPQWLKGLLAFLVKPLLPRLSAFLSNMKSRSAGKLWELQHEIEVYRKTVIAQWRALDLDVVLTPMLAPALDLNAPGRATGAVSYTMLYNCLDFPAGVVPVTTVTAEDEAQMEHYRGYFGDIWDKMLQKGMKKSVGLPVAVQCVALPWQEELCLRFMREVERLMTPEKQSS
Assay: Kinetic analysis of FAAH activity in human lymphocyte homogenates: release of [1-14C]arachidonic acid from [1-14C]anandamide, reversed phase HPLC
Format: biochemical
Settings: <8 weeks of pregnancy; for apparent maximum velocity (Vmax): lymphocyte homogenates
Procedure: The activity of FAAH (arachidonoylethanolamide amidohydrolase, EC 3.5.1.4) in human lymphocyte homogenates (20 µg/test) was determined by measuring the release of [1-^14C] arachidonic acid from [1-^14C] anandamide (NEN DuPont de Nemours, 52 mCi/mmol), using reversed phase high performance liquid cromatography as reported in Maccarrone et al. 1998.
The difference in FAAH activity between the group of 43 subjects with normal pregnancy (mean value = 169.60 ± 30.20 pmol.min^-1.mg protein^-1) and the group of 7 women who aborted (mean value 60.43 ± 29.34 pmol.min^-1.mg protein^-1) was statistically significant (P<0.0001 by the Mann-Whitney test). Embryonic death occurred approximately 10 days later, i.e. at 8 to 11 weeks for the subjects <7- to <10-week pregnant, respectively. […] On the other hand, the bell-shaped curve found for FAAH activity in normal subjects is frequently observed with biological indicators of the first trimester of pregnancy, such as the beta-subunit of human chorionic gonadotropin (Goldstein in Obstet Gynecol 1994).
FAAH (arachidonoylethanolamide amidohydrolase, EC 3.5.1.4) activity in human lymphocyte homogenates (20 µg/test) was determined by measuring the release of [1-^14C]arachidonic acid from [1-^14C] anandamide (NEN DuPont de Nemours, 52 mCi/mmol), using reverse phase high performance liquid cromatography as reported (Maccarrone et al. 1998). It has to be pointed out that the use of [^3H] anandamide, measuring the release of [^3H]arachidonic acid, yields the same results.

In the case of CCCCC/C=C\C/C=C\C/C=C\C/C=C\CCCC(=O)NCCO [anandamide, arachidonoylethanolamide], the “apparent maximum velocity (Vmax)” value (subjects who miscarried) is reported as 75 ± 8 pmol.min^-1.mg protein^-1, the “apparent maximum velocity (Vmax)” value (subjects with normal gestation) is reported as 187 ± 20 pmol.min^-1.mg protein^-1 and the Km (read-out: apparent Michaelis-Menten constant (Km), lymphocyte homogenates (20 µg/test), same value for subjects with normal gestation and those who miscarried) is reported as 8 ± 1 µM.
